These results are taken from patent US20240425523A1, “Compounds for the Degradation of EGFR Kinase” (Beigene Switzerland GMBH, priority 2023, published 2024).

Common to all, as to type: cell-based
The target of test [1] is T1, EGFR L858R (BaF3-L858R cells) (Homo sapiens, UniProt P00533, L858R).
T1 construct: host or cells: BaF3
Put plainly: Cell degradation of EGFR, HTRF assay, BaF3-L858R cells. As to conditions: 16 h treatment; for DC50: EGFR degradation. In a few lines:
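BaF3-L858R cells treated 16 h at 37° C, 5% CO2 with compound (top 10 uM final, 5-fold, 8 doses, 0.1% DMSO). DC50 from four-parameter fit; Dmax is maximum percent degradation.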
A general note: In TR-FRET formats the signal depends on donor and acceptor labels being close together.

Test [2] concerns the target p-EGFR Del19/C797S (H1975-clone #23 cells) (Homo sapiens, UniProt P00533). Put plainly: Cell p-EGFR inhibition assay, HTRF, H1975-clone#23 (DEL19/C797S) cells. As to conditions: 16 h treatment; for Imax (%): maximum percentage of pEGFR inhibition; for IC50: pEGFR inhibition. The gist of the method: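 Phospho-EGFR read by overnight HTRF on lysates, normalized to DMSO-treated high control; IC50, Hill slope and Imax fitted. Compounds were applied for 16 h (10 uM top, 5-fold steps, 8 doses) to an H1975 single clone carrying only exogenous Del19/C797S EGFR after sgRNA knockout of endogenous copies.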

The target in test [3] is T2, EGFR-L858R/C797S (H1975-clone #8 cells) (Homo sapiens, UniProt P00533, C797S/L858R).
T2 construct: expressed in transfected cells; host or cells: H1975 (endogenous EGFR knocked out, clone #8)
Put plainly: Cell degradation of EGFR, HTRF assay, H1975-clone#8 (L858R/C797S) cells. As to conditions: 16 h treatment; for DC50: EGFR degradation.

Test [4] addresses T3, p-EGFR L858R (BaF3-L858R cells) (Homo sapiens, UniProt P00533, L858R).
T3 construct: host or cells: BaF3
Put plainly: Cell p-EGFR inhibition assay, HTRF, BaF3-L858R cells. The settings on record: 16 h treatment; for Imax (%): maximum percentage of pEGFR inhibition; for IC50: pEGFR inhibition. The gist of the method:
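BaF3-L858R cells treated 16 h at 37 °C, 5% CO2 with compound from 10 uM top, 5-fold dilutions, 8 doses, in 0.1% DMSO medium. Lysates read overnight by HTRF p-EGFR antibodies; IC50 fitted to four-parameter curve against DMSO high control.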

Where [5] appears, read: maximum percentage of degradation.

Some results are limits rather than exact numbers.

With `COC[C@H]1CN(c2ccc3c(c2)N2C[C@@H]4CC[C@H](COc5c(cnn5C)-c5cc(cc(C)n5)C(=O)/N=C/2N3)C4)CCN1C1CCN(c2cc(F)c([C@H]3CCC(=O)NC3=O)c(F)c2)CC1` [Example 64, (R)-3-(4-(4-((R)-4-((7^1R,7^3S,E)-1^1,2^6-dimethyl-3-oxo-5^2,5^3-dihydro-1^1H,5^1H-9-oxa-4-aza-5(2,1)-benzo[d]imidazola-2(2,4)-pyridina-1(4,5)-pyrazola-7(1,3)-cyclopentanacyclononaphane-5^6-yl)-2-(methoxymethyl)piperazin-1-yl)piperidin-1-yl)-2,6-difluorophenyl)piperidine-2,6-dione], the results for the DC50 in test [1] and in test [3] were 1.07 nM and 1.87 nM, respectively. For the same compound, the Dmax in test [1] (setting [5]) amounted to 83.3%; in test [3] (setting [5]), 70%. For the same compound, the figures for the “Imax (%)” value in test [2] and in test [4] were 101.2% and 101.9%, respectively. For the same compound, the figures for the IC50 in test [2] and in test [4] were 0.7 nM and 3.2 nM, respectively.
In the case of `Cc1cc2cc(n1)-c1c(C)nn(C)c1OC[C@H]1CC[C@H](C1)CN1/C(=N/C2=O)Nc2ccc(N3CCN(CC4CN(c5cc(F)c([C@H]6CCC(=O)NC6=O)c(F)c5)C4)[C@H](C(F)F)C3)cc21` [Example 205, (R)-3-(4-(3-(((S)-2-(difluoromethyl)-4-((7R,7^3S,E)-1^1,1^3,2^6-trimethyl-3-oxo-5^2,5^3-dihydro-1^1H,5^1H-9-oxa-4-aza-5(2,1)-benzo[d]imidazola-2(2,4)-pyridina-1(4,5)-pyrazola-7(1,3)-cyclopentanacyclononaphane-5^6-yl)piperazin-1-yl)methyl)azetidin-1-yl)-2,6-difluorophenyl)piperidine-2,6-dione], the DC50 in test [1] came to 5.75 nM; in test [3] it was 3.05 nM. Also, the maximal degradation (Dmax) was found to be 90.3% in test [1] (setting [5]) and 85.8% in test [3] (setting [5]). Moreover, the results for the “Imax (%)” value in test [2] and in test [4] were 99.83% and 92.5%, respectively. The IC50 amounted to 0.539 nM in test [2] and 1.22 nM in test [4].
`Cc1cc2cc(n1)-c1c(C)nn(C)c1OC[C@H]1CC[C@H](C1)CN1/C(=N/C2=O)Nc2ccc(N3CCN(C4CCN(c5cc(F)c([C@H]6CCC(=O)NC6=O)c(F)c5)CC4)C[C@@H]3CF)cc21` [Example 211, (R)-3-(2,6-difluoro-4-(4-((R)-3-(fluoromethyl)-4-((7R,7^3S,E)-1^1,1^3,2^6-trimethyl-3-oxo-5^2,5^3-dihydro-1^1H,5^1H-9-oxa-4-aza-5(2,1)-benzo[d]imidazola-2(2,4)-pyridina-1(4,5)-pyrazola-7(1,3)-cyclopentanacyclononaphane-5^6-yl)piperazin-1-yl)piperidin-1-yl)phenyl)piperidine-2,6-dione]: the DC50 amounted to 0.73 nM in test [1] and 3.07 nM in test [3]. In addition, the Dmax turned out to be 91.3% in test [1] (setting [5]) and 88.8% in test [3] (setting [5]). In addition, the “Imax (%)” value was 99.96% in test [2] and 89.34% in test [4]. The IC50 was 1.6 nM in test [2] and 2.05 nM in test [4].
Regarding `COCC1(N2CCN(c3ccc4c(c3)N3CC5CC[C@H](COc6c(cnn6C)-c6cc(cc(C)n6)C(=O)/N=C/3N4)C5)CC2)CCN(c2ccc(C3CCC(=O)NC3=O)nc2C)CC1` (stereo partly drawn) [Example 106, 3-(5-(4-(4-((7^1R,7^3S,E)-1^1,2^6-dimethyl-3-oxo-5^2,5^3-dihydro-1^1H,5^1H-9-oxa-4-aza-5(2,1)-benzo[d]imidazola-2(2,4)-pyridina-1(4,5)-pyrazola-7(1,3)-cyclopentanacyclononaphane-5^6-yl)piperazin-1-yl)-4-(methoxymethyl)piperidin-1-yl)-6-methylpyridin-2-yl)piperidine-2,6-dione], the values for the DC50 in test [1] and in test [3] were 6.69 nM and 2.45 nM, respectively. Also, the Dmax in test [1] (setting [5]) is 82.5%; in test [3] (setting [5]), 83.3%. The “Imax (%)” value in test [2] worked out at 99.8%; in test [4] it was 97.6%. In addition, the values for the IC50 in test [2] and in test [4] were 0.8 nM and 16 nM, respectively.
As to `Cc1cc2cc(n1)-c1c(C)nn(C)c1OC[C@H]1CC[C@H](C1)CN1/C(=N/C2=O)Nc2ccc(N3CCC(C)(CN(C)C4CCN(c5cc(F)c([C@H]6CCC(=O)NC6=O)c(F)c5)CC4)CC3)cc21` [Example 168, (R)-3-(2,6-difluoro-4-(4-(methyl((4-methyl-1-((7^1R,7^3S,E)-1^1,1^3′2^6-trimethyl-3-oxo-5^2′5^3-dihydro-1^1H,5^1H-9-oxa-4-aza-5(2,1)-benzo[d]imidazola-2(2,4)-pyridina-1(4,5)-pyrazola-7(1,3)-cyclopentanacyclononaphane-5^6-yl)piperidin-4-yl)methyl)amino)piperidin-1-yl)phenyl)piperidine-2,6-dione], the DC50 in test [1] is 2.96 nM; in test [3], 3.07 nM. The figures for the Dmax in test [1] (setting [5]) and in test [3] (setting [5]) were 80.9% and 81.1%, respectively. Moreover, the “Imax (%)” value came to 102.22% in test [2] and 100.64% in test [4]. Further, the IC50 in test [2] is 2.56 nM; in test [4] it was 8.76 nM.
For `COC[C@@H]1CN(c2ccc3c(c2)N2CC4CC[C@H](COc5c(cnn5C)-c5cc(cc(C)n5)C(=O)/N=C/2N3)C4)CCN1C1CN(C2CCN(c3cc(F)c([C@H]4CCC(=O)NC4=O)c(F)c3)CC2)C1` [Example 108, (R)-3-(4-(4-(3-((S)-4-((7^1R,7^3S,E)-1^1,2^6-dimethyl-3-oxo-5^2,5^3-dihydro-1^1H,5^1H-9-oxa-4-aza-5(2,1)-benzo[d]imidazola-2(2,4)-pyridina-1(4,5)-pyrazola-7(1,3)-cyclopentanacyclononaphane-5^6-yl)-2-(methoxymethyl)piperazin-1-yl)azetidin-1-yl)piperidin-1-yl)-2,6-difluorophenyl)piperidine-2,6-dione], the DC50 in test [1] is 3.32 nM; in test [3] it was 0.75 nM. Besides, the results for the Dmax in test [1] (setting [5]) and in test [3] (setting [5]) were 87.3% and 77%, respectively. Besides, the “Imax (%)” value in test [2] turned out to be 100.3%; in test [4], 95.9%. In addition, the results for the IC50 in test [2] and in test [4] were 0.6 nM and 7.7 nM, respectively.
Turning to `COC[C@@H]1CN(c2ccc3c(c2)N2C[C@@H]4CCC(COc5c(c(C)nn5C)-c5cc(cc(C)n5)C(=O)/N=C/2N3)C4)CCN1C1CN(C2CCN(c3cc(F)c([C@H]4CCC(=O)NC4=O)c(F)c3)CC2)C1` [Example 121, (R)-3-(2,6-difluoro-4-(4-(3-((S)-2-(methoxymethyl)-4-((7R,7^3S,E)-1^1,1^3 2^6-trimethyl-3-oxo-5^2,5^3-dihydro-1^1H,5^1H-9-oxa-4-aza-5(2,1)-benzo[d]imidazola-2(2,4)-pyridina-1(4,5)-pyrazola-7(1,3)-cyclopentanacyclononaphane-5^6-yl)piperazin-1-yl)azetidin-1-yl)piperidin-1-yl)phenyl)piperidine-2,6-dione], the DC50 in test [1] came out at 1.06 nM; in test [3], 0.98 nM. The Dmax in test [1] (setting [5]) turned out to be 82.2%; in test [3] (setting [5]), 88.3%. Further, the figures for the “Imax (%)” value in test [2] and in test [4] were 100.8% and 96.6%, respectively. Further, the IC50 in test [2] came out at 0.7 nM; in test [4] it was 6 nM.
Turning to “3-(5-(4-((S)-4-((7^1R,7^3S,E)-1^1,2^6-dimethyl-3-oxo-5^2,5^3-dihydro-1^1H,5^1H-9-oxa-4-aza-5(2,1)-benzo[d]imidazola-2(2,4)-pyridina-1(4,5)-pyrazola-7(1,3)-cyclopentanacyclononaphane-5^6-yl)-2-methylpiperazin-1-yl)piperidin-1-yl)-6-methylpyridin-2-yl)piperidine-2,6-dione [Example 214]”, the DC50 in test [1] came to 0.65 nM; in test [3], 0.61 nM. Moreover, the results for the “Dmax (%)” value in test [1] (setting [5]) and in test [3] (setting [5]) were 82.61% and 77.32%, respectively. Further, the “Imax (%)” value is 100.03% in test [2] and 100.54% in test [4]. Further, the IC50 in test [2] amounted to 0.604 nM; in test [4], 3.32 nM.
On to `CC[C@H]1CN(c2ccc3c(c2)N2C[C@@H]4CC[C@H](COc5c(c(C)nn5C)-c5cc(cc(C)n5)C(=O)/N=C/2N3)C4)CCN1C1CCN(c2cc(F)c([C@H]3CCC(=O)NC3=O)c(F)c2)CC1` [Example 189, (R)-3-(4-(4-((S)-2-ethyl-4-((7^1R,7^3S,E)-1^1,1^3,2^6-trimethyl-3-oxo-5^2,5^3-dihydro-1^1H,5^1H-9-oxa-4-aza-5(2,1)-benzo[d]imidazola-2(2,4)-pyridina-1(4,5)-pyrazola-7(1,3)-cyclopentanacyclononaphane-5^6-yl)piperazin-1-yl)piperidin-1-yl)-2,6-difluorophenyl)piperidine-2,6-dione], for which the DC50 in test [1] came out at 4.4 nM; in test [3] it was 2.38 nM. The Dmax worked out at 87.6% in test [1] (setting [5]) and 90.2% in test [3] (setting [5]). For the same compound, the “Imax (%)” value in test [2] is reported as 100.03%; in test [4] it was 92.5%. In addition, the IC50 in test [2] was 2.11 nM; in test [4], less than 0.128 nM.

What is called DC50 is the concentration at which degradation of the target reaches its halfway point. What is called Dmax is the greatest extent of degradation seen. A low value points to shallow degradation. A word on the IC50: it is the midpoint of a concentration-inhibition curve.
